Reference: US20230049231A1 (priority 2019, published 2023)

What was measured:
Kv1.3 potassium channel = molecular target: T1, Kv1.3 potassium channel (Homo sapiens, UniProt P22001); assay: Kv1.3 potassium channel blocker activity, automated whole-cell patch clamp (Patchliner); format: cell-based
T1 construct: expressed in transfected cells
Procedure, shortened: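 IC50 came from Hill-equation fits of peak and AUC currents from the final pulse at each concentration, normalized to compound-free control. Compounds applied consecutively at 30 nM to 100 μM (up to 0.3% DMSO) to Kv1.3-expressing CHO-K1 cells, P/4 leak subtraction. Pulses were +40 mV, 100 ms, from −90 mV holding, at 0.1 Hz on Patchliner.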

hERG channel = molecular target: T2, hERG channel (Homo sapiens, UniProt Q12809); assay: hERG electrophysiology, automated whole-cell patch clamp (Patchliner); format: cell-based
T2 construct: expressed in transfected cells
T2 sequence (Q12809 whole entry): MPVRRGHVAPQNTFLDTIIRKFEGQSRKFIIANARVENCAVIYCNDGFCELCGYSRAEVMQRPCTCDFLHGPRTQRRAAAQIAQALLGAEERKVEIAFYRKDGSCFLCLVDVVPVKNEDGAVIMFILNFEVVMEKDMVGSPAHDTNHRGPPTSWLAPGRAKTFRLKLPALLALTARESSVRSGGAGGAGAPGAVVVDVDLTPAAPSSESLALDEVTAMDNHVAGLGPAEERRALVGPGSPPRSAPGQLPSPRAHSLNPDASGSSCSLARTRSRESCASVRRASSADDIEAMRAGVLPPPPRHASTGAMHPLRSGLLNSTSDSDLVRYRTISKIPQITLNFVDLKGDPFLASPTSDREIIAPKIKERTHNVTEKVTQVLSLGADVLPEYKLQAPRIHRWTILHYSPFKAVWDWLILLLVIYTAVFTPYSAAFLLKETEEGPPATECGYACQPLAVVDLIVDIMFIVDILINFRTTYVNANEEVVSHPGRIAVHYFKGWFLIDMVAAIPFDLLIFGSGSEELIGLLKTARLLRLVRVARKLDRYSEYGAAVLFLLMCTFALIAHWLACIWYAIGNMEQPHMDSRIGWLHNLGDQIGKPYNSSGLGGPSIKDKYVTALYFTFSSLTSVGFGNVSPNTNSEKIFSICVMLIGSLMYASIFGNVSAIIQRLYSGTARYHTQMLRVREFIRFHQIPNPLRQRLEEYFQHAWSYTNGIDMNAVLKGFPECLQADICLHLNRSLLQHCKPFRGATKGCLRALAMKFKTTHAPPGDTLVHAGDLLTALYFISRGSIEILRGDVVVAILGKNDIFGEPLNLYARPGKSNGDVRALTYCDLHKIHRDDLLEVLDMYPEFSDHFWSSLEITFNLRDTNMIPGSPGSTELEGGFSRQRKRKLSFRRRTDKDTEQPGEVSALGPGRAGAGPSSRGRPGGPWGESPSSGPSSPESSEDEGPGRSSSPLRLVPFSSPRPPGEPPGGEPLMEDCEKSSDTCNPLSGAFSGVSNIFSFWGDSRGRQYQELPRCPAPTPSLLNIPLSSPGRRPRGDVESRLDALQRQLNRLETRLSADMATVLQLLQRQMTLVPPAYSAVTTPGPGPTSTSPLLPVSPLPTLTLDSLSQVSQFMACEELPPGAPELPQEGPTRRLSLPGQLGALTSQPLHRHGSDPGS
Procedure, shortened: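 Automated whole-cell patch clamp on CHO-K1 cells stably expressing hERG; 30 nM–100 μM applied cumulatively to the same cell, ≤0.3% DMSO. Pulses: −80 mV holding, +20 mV for 300 ms, −50 mV for 300 ms tail, 0.3 Hz, 70 per concentration. Last-pulse AUC and peak, normalized to control, were fitted to a Hill equation for IC50.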

[1] = Kv1.3 potassium channel, whole-cell patch clamp
[2] = hERG channel, whole-cell patch clamp
[3] = CHO-K1 cells stably expressing Kv1.3, 100 ms pulses from -90 mV to +40 mV, 0.1 Hz
[4] = CHO-K1 cells stably expressing hERG, +20 mV 300 ms, -50 mV 300 ms tail current, 0.3 Hz

T1 sequence (P22001 whole entry): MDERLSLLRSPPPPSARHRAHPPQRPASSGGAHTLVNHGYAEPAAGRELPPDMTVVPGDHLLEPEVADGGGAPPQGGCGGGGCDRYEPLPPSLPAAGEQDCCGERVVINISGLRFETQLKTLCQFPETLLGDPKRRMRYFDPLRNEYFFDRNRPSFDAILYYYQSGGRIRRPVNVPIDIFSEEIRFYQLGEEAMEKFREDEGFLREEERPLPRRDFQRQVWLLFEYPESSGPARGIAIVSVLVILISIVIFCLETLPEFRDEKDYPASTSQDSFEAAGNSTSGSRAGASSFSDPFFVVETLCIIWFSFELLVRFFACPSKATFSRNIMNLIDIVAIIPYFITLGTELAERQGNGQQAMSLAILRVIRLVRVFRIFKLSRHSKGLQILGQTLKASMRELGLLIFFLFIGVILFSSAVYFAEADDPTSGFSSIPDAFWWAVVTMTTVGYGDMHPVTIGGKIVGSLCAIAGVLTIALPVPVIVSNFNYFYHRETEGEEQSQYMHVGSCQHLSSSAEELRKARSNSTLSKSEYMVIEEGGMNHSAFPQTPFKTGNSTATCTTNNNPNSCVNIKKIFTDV

Row | Compound | IC50 (Kv1.3 potassium channel; [1]) [µM] | IC50 (Kv1.3 potassium channel; [3]) [µM] | IC50 (hERG channel; [2]) [µM] | IC50 (hERG channel; [4]) [µM]
1 | COC(CO)CN1CC(=O)N2C[C@@H](c3c(O)ccc(Cl)c3Cl)C[C@H]2C1 (stereo partly drawn) [Compound 156, (7R,8aS)-7-(2,3-dichloro-6-hydroxyphenyl)-2-(3-hydroxy-2-methoxypropyl) hexahydropyrrolo[1,2-a]pyrazin-4-one] | < 1 |  | > 30 | 
2 | O=C1CN(C2CNC2)C[C@@H]2C[C@H](c3c(O)ccc(Cl)c3Cl)CN12 [Compound 129, (7R,8aS)-2-(azetidin-3-yl)-7-(2,3-dichloro-6-hydroxyphenyl)-hexahydropyrrolo [1,2-a]pyrazin-4-one] | < 1 |  | > 30 | 
3 | N[C@H]1CC2C[C@H](c3c(O)ccc(Cl)c3Cl)CN2C1=O (single isomer, unassigned) [Compound 248] | < 1 |  | < 10 | 
4 | O=C(CO)NC[C@H]1OC(=O)N2C[C@@H](c3c(O)ccc(Cl)c3Cl)C[C@@H]12 (single isomer, unassigned) [Compound 275] | < 1 |  | > 30 | 
5 | O=C1CN([C@@H]2CC[C@H]2O)C[C@@H]2C[C@H](c3c(O)ccc(Cl)c3Cl)CN12 (relative stereo) [Compound 159, (7R,8aS)-7-(2,3-dichloro-6-hydroxyphenyl)-2-[(1S,2S)-rel-2-hydroxycyclobutyl]-hexahydropyrrolo[1,2-a]pyrazin-4-one] | < 1 |  | > 30 | 
6 | O=C1CN(c2ncc[nH]2)C[C@@H]2C[C@H](c3c(O)ccc(Cl)c3Cl)CN12 [Compound 176, (7R,8aS)-7-(2,3-dichloro-6-hydroxyphenyl)-2-(1H-imidazol-2-yl)-hexahydropyrrolo[1,2-a]pyrazin-4-one] | < 1 |  | < 30 | 
7 | NC(=O)[C@H]1CC(=O)N2C[C@@H](c3c(O)ccc(Cl)c3Cl)C[C@H]2C1 (single isomer, unassigned) [Compound 231] | < 1 |  | > 30 | 
8 | CO[C@H](CO)C(=O)N1CC(=O)N2C[C@@H](c3c(O)ccc(Cl)c3Cl)C[C@H]2C1 [Compound 14, (7R,8aS)-7-(2,3-dichloro-6-hydroxyphenyl)-2-[(2R)-3-hydroxy-2-methoxypropanoyl]-hexahydropyrrolo[1,2-a]pyrazin-4-one] |  | < 1 |  | > 30
9 | O=C1[C@@H](CO)NC[C@@H]2C[C@H](c3c(O)ccc(Cl)c3Cl)CCN12 (relative stereo) [Compound 28, (8R,9aS)-rel-8-(2,3-dichloro-6-hydroxyphenyl)-3-((3R)-hydroxymethyl-octahydropyrido[1,2-a]pyrazin-4-one trifluoroacetic acid] |  | < 1 |  | > 30
10 | O=C1CN(C(CO)CO)C[C@@H]2C[C@H](c3c(O)ccc(Cl)c3Cl)CCN12 [Compound 122, (8R,9aS)-8-(2,3-dichloro-6-hydroxyphenyl)-2-(1,3-dihydroxypropan-2-yl)-hexahydro-1H-pyrido[1,2-a] pyrazin-4-one] | < 1 |  | > 30 | 
11 | O=C1[C@@H](CO)OC[C@@H]2C[C@H](c3c(O)ccc(Cl)c3Cl)CN12 [Compound 50, (3R,7R,8aS)-7-(2,3-dichloro-6-hydroxyphenyl)-3-(hydroxymethyl)-hexahydropyrrolo[2,1-c][1,4]oxazin-4-one] |  | < 1 |  | > 30
12 | C[C@@H](O)CN1CC(=O)N2C[C@@H](c3c(O)ccc(Cl)c3Cl)C[C@H]2C1 (single isomer, unassigned; isomer 1) [Compound 150] | < 1 |  | > 30 | 
13 | O=C(NC1CNC1)[C@@H]1CC(=O)N2C[C@@H](c3c(O)ccc(Cl)c3Cl)C[C@H]2C1 (single isomer, unassigned) [Compound 236] | < 1 |  | > 30 | 
14 | CCC(=O)N1CC(=O)N2C[C@@H](c3c(O)ccc(Cl)c3Cl)C[C@H]2C1 [Compound 8, (7R,8aS)-7-(2,3-dichloro-6-hydroxyphenyl)-2-pro-pionylhexahydropyrrolo [1,2-a]pyrazin-4(1H)-one] |  | < 1 |  | < 30
15 | NC(=O)[C@@H]1OC(=O)N2C[C@@H](c3c(O)ccc(Cl)c3Cl)C[C@@H]12 (single isomer, unassigned) [Compound 286] | < 1 |  | > 30 | 
16 | O=C1O[C@@H](CN2CCOCC2)[C@@H]2C[C@H](c3c(O)ccc(Cl)c3Cl)CN12 (single isomer, unassigned) [Compound 284] | < 1 |  | > 30 | 
17 | CC1[C@@H]2C[C@H](c3c(O)ccc(Cl)c3Cl)CCN2C(=O)CN1C(=O)CO (stereo partly drawn) [Compound 25, (8R,9aS)-8-(2,3-dichloro-6-hydroxypheny1)-2-(2-hydroxyacetyl)-1-methyl-hexahydro-1H-pyrido[1,2-a]pyrazin-4-one] |  | < 1 |  | > 30
18 | O=C1CN(C(=O)[C@H]2C[C@@H](O)C2)C[C@@H]2C[C@H](c3c(O)ccc(Cl)c3Cl)CN12 (single isomer, unassigned; isomer 2) [Compound 22] |  | < 1 |  | > 30
19 | O=C(CO)N1CC(=O)N2CC(c3c(O)ccc(Cl)c3Cl)C[C@H]2C1 (stereo partly drawn) [Compound 24, (8aS)-7-(2,3-dichloro-6-hydroxyphenyl)-2-(2-hydroxyacetyl)-hexahydropyrrolo[1,2-a]pyrazin-4-one] |  | < 1 |  | > 30
20 | COC[C@@H](O)CN1CC(=O)N2C[C@@H](c3c(O)ccc(Cl)c3Cl)C[C@H]2C1 (single isomer, unassigned; isomer 1) [Compound 152] | < 1 |  | < 30 | 
21 | CCC[C@H](CO)C(=O)N1CC(=O)N2C[C@@H](c3c(O)ccc(Cl)c3Cl)C[C@H]2C1 [Compound 77, (7R,8aS)-7-(2,3-dichloro-6-hydroxyphenyl)-2-[(2R)-2-(hydroxymethyl)pentanoyl]-hexahydropyrrolo [1,2-a]pyrazin-4-one] | < 1 |  | > 30 | 
22 | NC(=O)N1CCC(=O)N2C[C@@H](c3c(O)ccc(Cl)c3Cl)C[C@H]2C1 [Compound 97, (8R,9aS)-8-(2,3-dichloro-6-hydroxyphenyl)-5-oxo-hexahydro-1H-pyrrolo [1,2-a][1,4]diazepine-2-carboxamide] | < 1 |  | > 30 | 
23 | CNC(=O)[C@@H]1OC(=O)N2C[C@@H](c3c(O)ccc(Cl)c3Cl)C[C@@H]12 (single isomer, unassigned) [Compound 288] | < 1 |  | > 30 | 
24 | COC[C@H](CO)N1CC(=O)N2C[C@@H](c3c(O)ccc(Cl)c3Cl)C[C@H]2C1 (single isomer, unassigned) [Compound 118] | < 1 |  | > 30 | 

Continued, in another order:

Row | IC50 (Kv1.3 potassium channel; [1]) [µM] | IC50 (Kv1.3 potassium channel; [3]) [µM] | Compound | IC50 (hERG channel; [2]) [µM] | IC50 (hERG channel; [4]) [µM]
25 | < 1 |  | O=C1CN([C@@H]2COC[C@H]2O)C[C@@H]2C[C@H](c3c(O)ccc(Cl)c3Cl)CN12 (relative stereo) [Compound 155, (7R,8aS)-7-(2,3-dichloro-6-hydroxyphenyl)-2-[(3R,4S)-rel-4-hydroxyoxolan-3-yl]-hexahydropyrrolo[1,2-a]pyrazin-4-one] | > 30 | 
26 | < 1 |  | CC1(CN2CC(=O)N3C[C@@H](c4c(O)ccc(Cl)c4Cl)C[C@H]3C2)CNC1 [Compound 167, (7R,8aS)-7-(2,3-dichloro-6-hydroxyphenyl)-2-[(3-methylazetidin-3-yl)methyl]-hexahydropyrrolo[1,2-a]pyrazin-4-one] | > 30 | 
27 |  | < 1 | C[C@H](CO)C(=O)N1CC(=O)N2CC[C@@H](c3c(O)ccc(Cl)c3Cl)C[C@H]2C1 [Compound 54, (8R,9aS)-8-(2,3-dichloro-6-hydroxyphenyl)-2-((R)-3-hydroxy-2-methylpropanoyl)octahydro-4H-pyrido[1,2-a]pyrazin-4-one] |  | > 30
28 | < 1 |  | NCCN1C[C@@H]2C[C@H](c3c(O)ccc(Cl)c3Cl)CN2C1=O [Compound 292, (6R,7aS)-2-(2-aminoethyl)-6-(2,3-dichloro-6-hydroxyphenyl)-tetrahydro-1H-pyrrolo[1,2-c]imidazol-3-one] | < 30 | 
29 |  | < 1 | O=C(CO)N1CC(=O)N2CC[C@@H](c3c(O)ccc(Cl)c3Cl)C[C@H]2C1 [Compound 1, (8R,9aS)-8-(2,3-dichloro-6-hydroxyphenyl)-2-(2-hydroxyacetyl)-hexahydro-1H-pyrido[1,2-a]pyrazin-4-one] |  | > 30
30 | < 1 |  | C[C@@H]1CC(=O)N2C[C@@H](c3c(O)ccc(Cl)c3Cl)C[C@H]2CN1C(=O)CO [Compound 93, (3R,8R,9aS)-8-(2,3-dichloro-6-hydroxyphenyl)-2-(2-hydroxyacetyl)-3-methyl-hexahydro-1H-pyrrolo[1,2-a][1,4]diazepin-5-one] | < 30 | 
31 | < 1 |  | O=C1O[C@@H](CN2CC(O)C2)[C@@H]2C[C@H](c3c(O)ccc(Cl)c3Cl)CN12 (single isomer, unassigned) [Compound 282] | < 30 | 
32 | < 1 |  | O=C(C[C@@H](O)CO)N1CC(=O)N2C[C@@H](c3c(O)ccc(Cl)c3Cl)C[C@H]2C1 [Compound 78, (7R,8aS)-7-(2,3-dichloro-6-hydroxyphenyl)-2-[(3R)-3,4-dihydroxybutanoyl]-hexahydropyrrolo [1,2-a]pyrazin-4-one] | > 30 | 
33 | < 1 |  | COC[C@@H](CO)N1CC(=O)N2C[C@@H](c3c(O)ccc(Cl)c3Cl)C[C@H]2C1 (single isomer, unassigned; isomer 2) [Compound 119] | > 30 | 
34 | < 1 |  | C[C@H](O)[C@H]1OC(=O)N2C[C@@H](c3c(O)ccc(Cl)c3Cl)C[C@@H]12 (single isomer, unassigned) [Compound 258] | > 30 | 
